Test results published in paper PMC7026418, “The kinase polypharmacology landscape of clinical PARP inhibitors” (Scientific Reports, 2020).
Read-outs that look alike come from different tables or passages of the source.

Key:
Assay in all cases: biochemical
Design in all cases: DiscoveRx KINOMEscan active site-directed competition binding; percent of control kinase bound to immobilised ligand
FLT3(K663Q) = biological target: T1, FLT3(K663Q) (Homo sapiens, UniProt P36888, K663Q)
T1 sequence (P36888 1-993 K663Q): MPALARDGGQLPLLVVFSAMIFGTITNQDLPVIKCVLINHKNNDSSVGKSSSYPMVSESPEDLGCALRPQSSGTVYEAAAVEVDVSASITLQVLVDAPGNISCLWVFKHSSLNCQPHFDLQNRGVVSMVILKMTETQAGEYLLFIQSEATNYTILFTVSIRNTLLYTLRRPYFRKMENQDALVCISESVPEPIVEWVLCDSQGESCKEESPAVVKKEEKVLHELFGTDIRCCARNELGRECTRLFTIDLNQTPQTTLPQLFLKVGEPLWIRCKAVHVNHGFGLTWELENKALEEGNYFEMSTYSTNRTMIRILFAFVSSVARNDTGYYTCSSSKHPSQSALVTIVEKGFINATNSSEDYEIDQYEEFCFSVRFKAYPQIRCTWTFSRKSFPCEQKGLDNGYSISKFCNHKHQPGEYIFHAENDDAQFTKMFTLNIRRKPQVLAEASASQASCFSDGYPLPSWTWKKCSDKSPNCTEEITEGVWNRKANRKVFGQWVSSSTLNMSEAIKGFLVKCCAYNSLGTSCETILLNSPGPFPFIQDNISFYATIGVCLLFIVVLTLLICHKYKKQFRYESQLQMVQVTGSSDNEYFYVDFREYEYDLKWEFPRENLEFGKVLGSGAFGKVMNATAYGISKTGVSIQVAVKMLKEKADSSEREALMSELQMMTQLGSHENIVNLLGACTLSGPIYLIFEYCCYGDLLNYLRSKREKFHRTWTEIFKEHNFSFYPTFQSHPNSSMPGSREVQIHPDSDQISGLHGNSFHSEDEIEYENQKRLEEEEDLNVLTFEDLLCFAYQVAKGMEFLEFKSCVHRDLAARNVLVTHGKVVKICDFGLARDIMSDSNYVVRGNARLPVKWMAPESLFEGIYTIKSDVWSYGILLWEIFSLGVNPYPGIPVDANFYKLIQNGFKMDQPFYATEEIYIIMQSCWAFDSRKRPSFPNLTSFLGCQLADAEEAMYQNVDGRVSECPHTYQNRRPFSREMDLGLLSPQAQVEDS

HPK1 = biological target: T2, HPK1 (Homo sapiens, UniProt Q92918)
T2 construct: gene MAP4K1
T2 sequence (Q92918 whole entry): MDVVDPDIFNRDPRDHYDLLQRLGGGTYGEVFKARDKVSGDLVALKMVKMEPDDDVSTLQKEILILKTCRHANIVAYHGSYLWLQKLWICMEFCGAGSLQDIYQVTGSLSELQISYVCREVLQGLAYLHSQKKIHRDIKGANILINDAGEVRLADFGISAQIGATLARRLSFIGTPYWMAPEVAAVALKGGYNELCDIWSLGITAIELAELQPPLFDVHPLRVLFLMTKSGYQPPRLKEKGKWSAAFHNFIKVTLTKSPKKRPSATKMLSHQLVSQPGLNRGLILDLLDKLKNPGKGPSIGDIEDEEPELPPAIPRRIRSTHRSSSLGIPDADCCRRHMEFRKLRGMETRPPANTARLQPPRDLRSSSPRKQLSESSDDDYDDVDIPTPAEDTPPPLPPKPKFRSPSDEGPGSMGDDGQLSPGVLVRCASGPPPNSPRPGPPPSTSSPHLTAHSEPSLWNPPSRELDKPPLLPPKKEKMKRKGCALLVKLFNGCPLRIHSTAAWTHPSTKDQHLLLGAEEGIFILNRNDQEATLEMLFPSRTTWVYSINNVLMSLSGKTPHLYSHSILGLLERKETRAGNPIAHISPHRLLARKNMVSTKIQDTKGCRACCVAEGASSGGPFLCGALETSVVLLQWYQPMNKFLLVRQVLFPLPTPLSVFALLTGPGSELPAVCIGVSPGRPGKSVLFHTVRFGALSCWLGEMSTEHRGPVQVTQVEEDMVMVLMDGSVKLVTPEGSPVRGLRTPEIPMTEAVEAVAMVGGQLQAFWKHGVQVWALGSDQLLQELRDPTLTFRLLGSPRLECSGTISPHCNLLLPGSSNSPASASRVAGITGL

PIK3C2B = PIK3C2B (Homo sapiens, UniProt O00750)
MYO3A = MYO3A (Homo sapiens, UniProt Q8NEV4)
Sequence of MYO3A (Q8NEV4 whole entry): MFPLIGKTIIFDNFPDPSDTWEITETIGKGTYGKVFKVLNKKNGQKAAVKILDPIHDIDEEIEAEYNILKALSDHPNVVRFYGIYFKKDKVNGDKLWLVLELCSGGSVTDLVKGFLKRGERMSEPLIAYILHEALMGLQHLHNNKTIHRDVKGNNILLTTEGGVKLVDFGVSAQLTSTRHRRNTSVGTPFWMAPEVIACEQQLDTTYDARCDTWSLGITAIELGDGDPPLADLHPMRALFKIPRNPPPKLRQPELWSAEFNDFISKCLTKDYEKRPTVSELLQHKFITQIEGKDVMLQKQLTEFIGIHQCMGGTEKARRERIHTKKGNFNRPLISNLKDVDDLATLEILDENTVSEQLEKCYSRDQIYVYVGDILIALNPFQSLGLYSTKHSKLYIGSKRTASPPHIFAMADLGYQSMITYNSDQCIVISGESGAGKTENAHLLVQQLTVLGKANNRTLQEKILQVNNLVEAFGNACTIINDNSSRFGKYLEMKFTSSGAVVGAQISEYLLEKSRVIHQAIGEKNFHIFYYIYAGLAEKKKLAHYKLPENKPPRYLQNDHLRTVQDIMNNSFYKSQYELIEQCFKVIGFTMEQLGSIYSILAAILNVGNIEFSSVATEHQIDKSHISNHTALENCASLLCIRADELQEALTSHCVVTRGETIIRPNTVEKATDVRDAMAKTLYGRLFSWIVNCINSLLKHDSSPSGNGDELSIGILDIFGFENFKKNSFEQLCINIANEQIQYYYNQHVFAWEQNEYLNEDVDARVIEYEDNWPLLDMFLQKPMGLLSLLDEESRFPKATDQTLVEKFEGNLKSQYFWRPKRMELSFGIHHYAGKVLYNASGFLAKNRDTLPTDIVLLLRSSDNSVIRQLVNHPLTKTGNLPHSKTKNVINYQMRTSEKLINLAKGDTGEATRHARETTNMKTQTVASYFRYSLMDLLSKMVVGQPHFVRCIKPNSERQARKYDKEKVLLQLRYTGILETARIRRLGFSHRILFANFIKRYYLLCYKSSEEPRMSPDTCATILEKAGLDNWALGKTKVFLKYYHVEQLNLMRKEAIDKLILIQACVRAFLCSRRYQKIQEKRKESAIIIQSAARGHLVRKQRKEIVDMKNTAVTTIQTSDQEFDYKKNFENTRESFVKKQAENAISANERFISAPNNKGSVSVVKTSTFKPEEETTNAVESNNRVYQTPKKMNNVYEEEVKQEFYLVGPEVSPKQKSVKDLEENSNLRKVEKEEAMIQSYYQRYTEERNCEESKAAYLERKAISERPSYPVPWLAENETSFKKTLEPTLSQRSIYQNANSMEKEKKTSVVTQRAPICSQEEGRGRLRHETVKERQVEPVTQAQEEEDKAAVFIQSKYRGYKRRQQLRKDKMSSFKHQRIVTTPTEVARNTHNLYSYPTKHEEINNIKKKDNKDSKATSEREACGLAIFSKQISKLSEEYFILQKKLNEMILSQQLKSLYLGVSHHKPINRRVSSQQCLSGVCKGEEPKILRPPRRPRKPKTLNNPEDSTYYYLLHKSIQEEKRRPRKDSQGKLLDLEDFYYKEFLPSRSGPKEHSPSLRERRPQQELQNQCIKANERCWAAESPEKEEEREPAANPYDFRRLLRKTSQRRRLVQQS

BIKE = biological target: T3, BIKE (Homo sapiens, UniProt Q9NSY1)
T3 construct: gene BMP2K

[1] = biological target: T4, RSK4(Kin.Dom.1-N-terminal) (Homo sapiens, UniProt Q9UK32)
T4 construct: gene RPS6KA6; Kin.Dom.1-N-terminal
T4 sequence (Q9UK32 whole entry): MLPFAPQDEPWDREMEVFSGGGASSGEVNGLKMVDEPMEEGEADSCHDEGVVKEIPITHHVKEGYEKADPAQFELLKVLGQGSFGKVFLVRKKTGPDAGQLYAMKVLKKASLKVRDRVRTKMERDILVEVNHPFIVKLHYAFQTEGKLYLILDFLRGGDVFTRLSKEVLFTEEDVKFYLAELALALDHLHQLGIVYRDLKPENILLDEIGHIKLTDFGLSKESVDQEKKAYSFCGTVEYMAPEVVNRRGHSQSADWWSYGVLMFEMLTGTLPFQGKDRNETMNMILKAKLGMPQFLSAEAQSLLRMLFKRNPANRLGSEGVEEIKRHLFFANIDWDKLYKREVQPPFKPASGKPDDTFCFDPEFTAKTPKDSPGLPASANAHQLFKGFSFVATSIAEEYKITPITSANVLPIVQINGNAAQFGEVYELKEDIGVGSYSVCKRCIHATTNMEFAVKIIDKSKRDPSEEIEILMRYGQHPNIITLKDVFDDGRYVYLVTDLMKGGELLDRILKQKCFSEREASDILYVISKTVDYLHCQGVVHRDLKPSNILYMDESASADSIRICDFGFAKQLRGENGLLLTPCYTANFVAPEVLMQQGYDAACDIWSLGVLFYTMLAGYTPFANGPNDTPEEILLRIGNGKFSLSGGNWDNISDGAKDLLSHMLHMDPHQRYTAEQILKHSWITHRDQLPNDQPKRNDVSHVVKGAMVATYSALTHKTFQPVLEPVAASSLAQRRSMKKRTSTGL

CDK9 = CDK9 (Homo sapiens, UniProt P50750)
Sequence of CDK9 (P50750 whole entry): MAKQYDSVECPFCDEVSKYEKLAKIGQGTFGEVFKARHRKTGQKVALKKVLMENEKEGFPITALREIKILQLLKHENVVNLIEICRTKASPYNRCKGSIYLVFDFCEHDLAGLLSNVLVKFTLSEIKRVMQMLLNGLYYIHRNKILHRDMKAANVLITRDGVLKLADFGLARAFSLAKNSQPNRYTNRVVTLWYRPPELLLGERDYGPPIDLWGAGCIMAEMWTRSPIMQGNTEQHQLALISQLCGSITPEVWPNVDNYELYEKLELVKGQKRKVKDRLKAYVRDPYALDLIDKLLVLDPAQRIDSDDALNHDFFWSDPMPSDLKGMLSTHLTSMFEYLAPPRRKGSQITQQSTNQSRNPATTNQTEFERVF

PAK3 = PAK3 (Homo sapiens, UniProt O75914)
Sequence of PAK3 (O75914 whole entry): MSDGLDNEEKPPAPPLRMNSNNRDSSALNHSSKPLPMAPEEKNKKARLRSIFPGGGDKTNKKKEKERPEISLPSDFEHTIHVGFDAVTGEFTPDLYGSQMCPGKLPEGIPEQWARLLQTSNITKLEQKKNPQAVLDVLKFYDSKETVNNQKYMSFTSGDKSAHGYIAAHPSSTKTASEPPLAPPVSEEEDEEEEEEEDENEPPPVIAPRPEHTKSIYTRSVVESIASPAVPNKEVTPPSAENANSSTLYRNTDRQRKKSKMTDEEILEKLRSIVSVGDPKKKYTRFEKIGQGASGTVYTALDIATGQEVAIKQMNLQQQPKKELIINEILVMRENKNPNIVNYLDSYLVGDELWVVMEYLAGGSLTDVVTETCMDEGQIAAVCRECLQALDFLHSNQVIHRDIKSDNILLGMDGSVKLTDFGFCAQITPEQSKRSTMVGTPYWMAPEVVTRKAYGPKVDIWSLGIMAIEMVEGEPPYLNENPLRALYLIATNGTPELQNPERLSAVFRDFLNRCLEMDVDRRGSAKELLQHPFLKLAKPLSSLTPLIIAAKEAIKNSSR

CLK1 = CLK1 (Homo sapiens, UniProt P49759)
Sequence of CLK1 (P49759 whole entry): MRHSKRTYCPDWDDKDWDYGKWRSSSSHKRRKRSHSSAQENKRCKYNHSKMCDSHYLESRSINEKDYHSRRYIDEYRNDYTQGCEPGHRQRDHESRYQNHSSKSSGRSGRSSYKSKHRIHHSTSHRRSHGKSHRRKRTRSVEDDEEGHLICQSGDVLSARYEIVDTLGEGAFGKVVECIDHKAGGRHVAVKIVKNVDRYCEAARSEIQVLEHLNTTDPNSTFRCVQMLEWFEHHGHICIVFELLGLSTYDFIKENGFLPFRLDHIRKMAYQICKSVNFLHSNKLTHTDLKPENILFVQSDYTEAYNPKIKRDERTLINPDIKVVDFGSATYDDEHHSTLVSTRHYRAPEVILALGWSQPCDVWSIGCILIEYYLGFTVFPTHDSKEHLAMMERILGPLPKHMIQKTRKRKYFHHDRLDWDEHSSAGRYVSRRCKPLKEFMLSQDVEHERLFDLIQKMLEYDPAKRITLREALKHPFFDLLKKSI

RIPK4 = biological target: T5, RIPK4 (Homo sapiens, UniProt P57078)
T5 sequence (P57078 1-832): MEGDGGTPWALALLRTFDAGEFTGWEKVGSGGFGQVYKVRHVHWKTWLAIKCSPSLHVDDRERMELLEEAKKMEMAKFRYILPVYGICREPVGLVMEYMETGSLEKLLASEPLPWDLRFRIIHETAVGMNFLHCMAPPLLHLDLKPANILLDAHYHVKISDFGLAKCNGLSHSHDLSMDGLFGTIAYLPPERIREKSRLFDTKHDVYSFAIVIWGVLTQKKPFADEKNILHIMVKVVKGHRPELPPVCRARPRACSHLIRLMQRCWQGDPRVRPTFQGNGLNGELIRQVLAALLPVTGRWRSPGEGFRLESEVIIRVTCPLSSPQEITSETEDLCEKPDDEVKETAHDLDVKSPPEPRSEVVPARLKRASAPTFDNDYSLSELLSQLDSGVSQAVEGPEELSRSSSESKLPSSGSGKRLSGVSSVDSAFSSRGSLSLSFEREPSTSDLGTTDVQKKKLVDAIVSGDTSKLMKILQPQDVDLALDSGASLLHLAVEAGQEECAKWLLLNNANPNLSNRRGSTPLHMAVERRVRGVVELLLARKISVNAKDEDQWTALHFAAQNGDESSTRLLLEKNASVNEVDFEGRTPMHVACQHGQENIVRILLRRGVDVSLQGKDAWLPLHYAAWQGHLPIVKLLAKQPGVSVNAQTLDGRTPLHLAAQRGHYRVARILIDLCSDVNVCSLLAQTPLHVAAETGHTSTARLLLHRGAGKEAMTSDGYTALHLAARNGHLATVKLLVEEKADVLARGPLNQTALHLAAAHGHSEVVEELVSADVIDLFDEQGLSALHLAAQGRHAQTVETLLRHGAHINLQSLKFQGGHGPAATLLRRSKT

[2] = read-out: Niraparib (MK-4827) / %Ctrl @ 10000nM
[3] = read-out: Olaparib / %Ctrl @ 10000nM
[4] = read-out: Rucaparib / %Ctrl @ 10000nM, binding competition, % of control
[5] = read-out: Talazoparib (BMN 673) / %Ctrl @ 10000nM

NC(=O)c1cccc2cn(-c3ccc([C@@H]4CCCNC4)cc3)nc12 [Niraparib]
percent of control binding at 10 µM (FLT3(K663Q); [2]): 75%
percent of control binding at 10 µM (HPK1; [2]): 100%
percent of control binding at 10 µM (PIK3C2B; [2]): 100%
percent of control binding at 10 µM (MYO3A; [2]): 72%
percent of control binding at 10 µM (BIKE; [2]): 81%
percent of control binding at 10 µM [1, 2]: 100%
percent of control binding at 10 µM (CDK9; [2]): 100%
percent of control binding at 10 µM (PAK3; [2]): 67%
percent of control binding at 10 µM (CLK1; [2]): 48%
percent of control binding at 10 µM (RIPK4; [2]): 81%

O=C(c1cc(Cc2n[nH]c(=O)c3ccccc23)ccc1F)N1CCN(C(=O)C2CC2)CC1 [Olaparib]
percent of control binding at 10 µM (FLT3(K663Q); [3]): 88%
percent of control binding at 10 µM (HPK1; [3]): 94%
percent of control binding at 10 µM (PIK3C2B; [3]): 100%
percent of control binding at 10 µM (MYO3A; [3]): 100%
percent of control binding at 10 µM (BIKE; [3]): 100%
percent of control binding at 10 µM [1, 3]: 76%
percent of control binding at 10 µM (CDK9; [3]): 100%
percent of control binding at 10 µM (PAK3; [3]): 96%
percent of control binding at 10 µM (CLK1; [3]): 99%
percent of control binding at 10 µM (RIPK4; [3]): 81%

CNCc1ccc(-c2[nH]c3cc(F)cc4c3c2CCNC4=O)cc1 [Rucaparib]
Rucaparib / %Ctrl @ 10000nM (FLT3(K663Q); binding competition, % of control): 93%
percent of control binding at 10 µM (HPK1; [4]): 96%
percent of control binding at 10 µM (PIK3C2B; [4]): 98%
percent of control binding at 10 µM (MYO3A; [4]): 42%
percent of control binding at 10 µM (BIKE; [4]): 72%
percent of control binding at 10 µM [1, 4]: 63%
percent of control binding at 10 µM (CDK9; [4]): 78%
percent of control binding at 10 µM (PAK3; [4]): 95%
percent of control binding at 10 µM (CLK1; [4]): 37%
percent of control binding at 10 µM (RIPK4; [4]): 75%

Cn1ncnc1[C@H]1c2n[nH]c(=O)c3cc(F)cc(c23)N[C@@H]1c1ccc(F)cc1 [Talazoparib]
percent of control binding at 10 µM (FLT3(K663Q); [5]): 91%
percent of control binding at 10 µM (HPK1; [5]): 85%
percent of control binding at 10 µM (PIK3C2B; [5]): 67%
percent of control binding at 10 µM (MYO3A; [5]): 83%
percent of control binding at 10 µM (BIKE; [5]): 93%
percent of control binding at 10 µM [1, 5]: 99%
percent of control binding at 10 µM (CDK9; [5]): 100%
percent of control binding at 10 µM (PAK3; [5]): 100%
percent of control binding at 10 µM (CLK1; [5]): 86%
percent of control binding at 10 µM (RIPK4; [5]): 69%
